Results as given in patent publication US20040014217A1, “Methods of transfection” (priority 2000, published 2004).

What was measured:
[1] = tested on: Human airway epithelial (HAE) cells; test: BrdU labelling of HAE cells, Example 13; assay type: cell-based
Experimental: Bromodeoxyuridine (BrdU) labelling enables assessment of cell proliferation. BrdU kits are available from Zymed Laboratories, Inc., South San Francisco, Calif., U.S.A. BrdU was added to the cells at the same time as the transfection reagent and was maintained throughout the rest of the experiment until cell harvesting.

[2] = tested on: 1HAEo-cells; test: BrdU incorporation by flow cytometry, 1HAEo- cells; assay type: cell-based, human; conditions: EGTA 2 mM, aphidicolin 10 μg/ml where present
Experimental: A BrdU Labelling and Detection Kit (Roche, Basel, Switzerland) was used, which contains the BrdU labelling reagent and the monoclonal mouse anti-BrdU. […] Cells were washed with PBS and incubated with a second layer antibody, Texas Red labelled horse anti-mouse IgG (Vector Laboratories, Peterborough, UK), for 30 minutes at 37° C. and then analysed by flow cytometry at the wavelength of 575±20 nm as detailed above. In some experiments, aphidicolin, a cell-proliferation inhibitor blocking the cell cycle in S-phase, was added to the cells to observe the effects on transfection efficiency.

[3] = tested on: integrins; conditions: cited from earlier work
[4] = tested on: ECV304 cells; test: Luciferase (pGL2) transfection of ECV304 cells; assay type: cell-based, human; conditions: LID complexes, 40 μg total [K]16-peptide; luciferase after 48 hours
Experimental: Cells were seeded into 24-well plates at 5×10^4 cells per well then incubated overnight at 37° C. in complete growth medium. The following day, transfection complexes were made from the following stock solutions, all prepared in OptiMEM (Life Technologies, Paisley, U. K.), lipofectin (an equimolar mixture of the cationic lipid N-[1-(2,3-dioleyloxy)propyl]-N,N,N-trimethylammonium chloride (DOTMA) and the neutral lipid dioleoyl phosphatidylethanolamine (DOPE), obtained as “Lipofectin” from Life Technologies, Paisley, U.K.) (1 mg/ml), pGL2-control (1 mg/100 ml) and [K]16]/integrin-targeting peptide 1, 5 or 6 (0.1 mg/ml).
Complexes were made usually with three components: oligolysine-peptide (I), plasmid DNA or RNA (D) and lipofectin (L), by mixing together the different components with an automatic pipette. […]
Cells transformed with pGL2 were washed twice with PBS to remove serum then 100 microlitres of Reporter Lysis Buffer (Promega, Madison, Wis, U.S.A.) was added to each well and placed at […] for 15 to 30 minutes. […] Total light emission was measured for 60 seconds on an LKB 1251 Luminometer (Labtech, Uckfield, U.K.). The protein concentration of each sample was then determined with Protein Assay Reagent (BioRad, Hercules, Calif., U.S.A.) and luciferase enzyme activity expressed in terms of relative light units per milligram of protein (RLU/mg). […]

[5] = tested on: human lung fibroblasts (HFL-1 cells); test: Thrombin-induced proliferation of HFL-1 cells after antisense (PAR-1) transfection; assay type: cell-based
Experimental: Thrombin stimulates proliferation of human lung fibroblasts. Thrombin-treated human lung fibroblasts (HFL-1 cells) proliferated 53% in response to thrombin. 24 hours before treatment with thrombin, HFL-1 cells were treated with an LID complex comprising [K]16-peptide 6, lipofectin and a 20-mer antisense oligonucleotide directed against the thrombin receptor PAR-1 in the optimal ratio and mixing order prepared as described in the Materials and Methods section and the Examples above. The antisense oligonucleotide-containing complex was in contact with the cells for 4 hours. 24 hours after the start of the treatment with the complex, treatment with thrombin was carried out.

O=c1[nH]c(=O)n([C@H]2C[C@H](O)[C@@H](CO)O2)cc1Br [BrdU, 5-Bromo-2′-deoxy-uridine]
BrdU labelling, Confluent cells [1]: 7.1% | BrdU labelling, Sub-confluent cells [1]: 44.4% | BrdU-positive cells, confluent 1HAEo- cells [2]: 7.1% | BrdU-positive cells, sub-confluent 1HAEo- cells [2]: 43.0%

C[C@@]1(CO)[C@H](O)CC[C@@]2(C)[C@H]1CC[C@H]1C[C@@H]3C[C@@]12CC[C@]3(O)CO [aphidicolin, Aphidicolin]
BrdU-positive cells, confluent 1HAEo- cells [2]: 5% | BrdU-positive cells, sub-confluent 1HAEo- cells [2]: 7%

GACDCRGDCFCA [Peptide 5]
integrin specificity [3]: (αv)

[K]16GACRRETAWACG (KKKKKKKKKKKKKKKKGACRRETAWACG) [oligolysine-peptide 6]
transfection efficiency with increasing amounts of oligolysine-peptide 6 replacing [K]16 [4]: apparently exponential increase

thrombin
proliferation in response to thrombin [5]: 53%
